Laboratory results reported in PubChem BioAssay AID1159565 (GlaxoSmithKline (GSK), 2015).
Active and inactive are the calls of the source. No rule for the calls is given here.

Test system: T. cruzi-infected H9C2 cardiomyocytes, high-content imaging
Assay: intracellular T. cruzi amastigote inhibition, imaging, H9C2 host cardiomyocytes, host toxicity (AID 1159565);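 also: infected cells incubated 72 h after plating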
[1] = measured here: H9C2 host cell toxicity
[2] = measured here: amastigotes per cell

Compound	IC50	IC50 [1] [µM]	IC50 [2] [µM]
Cc1nc(-c2nc(NCc3ccc(Cl)cc3)c3cccnc3c2O)n[nH]1	0.79 µM	25	1.3
CC1=NN(C(=O)CCn2cnc([N+](=O)[O-])n2)C(O)(C(F)(F)F)C1 (stereo unspecified)	6.3 µM	> 50	1.3
COc1cc(NC(=O)Nc2cccc(CNC(=O)OC3CCCCC3)c2)ccc1-c1cnco1	25 µM	16	32
COc1ccc(C(C)(C)C)cc1S(=O)(=O)n1ccnc1	0.2 µM	> 50	0.2
Nc1ncnc2c1ncn2[C@@H]1O[C@H](CO)C[C@H]1O	2 µM	5	1.3
O=C(Nc1n[nH]c(-c2ccccn2)n1)C1CC1c1ccccc1 (stereo unspecified)	20 µM	> 50	16
O=C(CN(Cc1ccccn1)Cc1ccccn1)NCc1ccc(-c2csnn2)cc1	63 µM	> 79	7.9
Cn1c(CC(=O)NNC(=O)c2ccc3ccccc3n2)nc2ccccc21	5 µM	> 50	6.3
Cc1nc(N2CC(C)OC(C)C2)sc1C(=O)Nc1ccc2c(c1)OCO2 (stereo unspecified)	4 µM	> 50	2.5
CC(C)S(=O)(=O)c1ccc(-c2cnc(N)c3cc(-c4ccnc(N)n4)ccc23)cc1	40 µM	0.5	13
CS(=O)(=O)c1ccc(Nc2nccc(-c3cnn4ncccc34)n2)cc1	25 µM	5	1
Clc1ccc(CN2CCN(C3=NCCN3)CC2)cc1Cl	10 µM	> 50	1
Cc1nc2c(-c3nc(-c4ccc(N)cc4)n[nH]3)cccn2c1C	> 50 µM (inactive)	10	> 50
O=c1[nH]ccc2ccc(-c3ccncc3)cc12	0.25 µM	> 50	0.25
Cc1cc(C)n(-c2nc(NC(C)(C)C)nc(N3CCOCC3)n2)n1	10 µM	1.3	3.2
CC(C)n1c(-c2nonc2N)nc2cccc(OCCN3CCCC3)c21	16 µM	32	25
COc1ccc(S(=O)(=O)NCc2ccc(-c3ccc(CN(C)CCO)cc3)cc2)cc1	2.5 µM	> 50	1.3
CN1C(=O)c2ccccc2Sc2ccc(NC(=O)NCc3ccco3)cc21	13 µM	25	6.3
Cc1nnnn1-c1cccc(C(=O)N2CCC[C@@]3(C)c4ncncc4CCC23)c1 (stereo partly specified)	0.32 µM	> 50	0.32
Cc1cc(NC(=O)CC2CCCCC2)n(-c2nc3c(c(=O)[nH]2)CCC3)n1	0.32 µM	4	0.13
Cc1ccc(NC(=O)c2ccc(Cl)c(NC(=O)c3ccc([N+](=O)[O-])cc3)c2)cc1	0.5 µM	> 50	0.2
O=C(Nc1ccccc1)Nc1nc(-c2ccccn2)cs1	1 µM	1	0.63
CCC(=O)Nc1ccc(-c2nc3ccc(Cl)cc3[nH]2)cc1	1.6 µM	> 50	0.5
CN(C)S(=O)(=O)c1ccc(Cl)c(C(=O)Nc2nc(-c3ccccn3)cs2)c1	2 µM	6.3	1.3
O=C(Nc1ncc([N+](=O)[O-])s1)C1CC1	1 µM	> 50	0.4
O=C(Nc1nc(-c2ccccn2)cs1)c1ccccc1-n1cnnn1	3.2 µM	5	2

Compound	IC50	IC50 [1] [µM]	IC50 [2] [µM]
COc1ccc(C2CC(c3ccc(NS(C)(=O)=O)cc3)=NN2C(=O)c2cccs2)cc1OC (stereo unspecified)	32 µM	> 50	16
CCC(CC)C(=O)Nc1cccc(C(=O)Nc2nnc(C3CCCCC3)s2)c1	25 µM	> 50	16
O=c1cc(NCCCNC2CCOc3c(I)cc(Cl)cc32)[nH]c2ccccc12 (stereo unspecified)	0.32 µM	25	0.16
COC(=O)c1ccc(-c2cnc3ccc(NCc4ccccn4)nn23)cc1	7.9 µM	> 50	5
O=C(c1ccccc1)N1CCC(C(=O)N2CCC(Oc3ccccc3Cl)CC2)CC1	32 µM	> 50	25
CS(=O)(=O)N1CCC(Nc2ncc(Br)c(Nc3cccc(F)c3C(N)=O)n2)CC1	1 µM	0.16	0.4
Cc1cc2ncn(-c3ccc([N+](=O)[O-])cc3C#N)c2cc1C	2 µM	> 50	0.79
O=C(CN(Cc1ccccn1)Cc1ccccn1)NCc1ccc2c(c1)OCO2	13 µM	> 79	6.3
Cc1ccc(NC(C)C(=O)Nc2ccc(C#N)cc2)cc1S(=O)(=O)N1CCCCC1 (stereo unspecified)	7.9 µM	> 50	7.9
C[C@@H](Oc1cc(-n2cnc3ccc(CC(O)CO)cc32)sc1C(N)=O)c1ccccc1Cl (stereo partly specified)	50 µM	0.13	13
Cc1sc(C)c(C(F)(F)F)c1CNCCCNc1cc(=O)c2ccccc2[nH]1	1 µM	> 50	0.5
c1ccc(Nc2nc3ccccc3[nH]2)nc1	25 µM	10	10
Cn1nccc1NC(=O)Cn1ccc(-c2ccncc2)n1	> 50 µM (inactive)	> 50	> 50
COc1ccc(CNc2nsc3ccccc23)cc1OC	25 µM	> 50	20
N#Cc1ccc(S(=O)(=O)N2CCC3(CCN(c4ccccc4)C3=O)CC2)cc1	1 µM	> 50	0.63
COCc1cc(Nc2ccccc2)nc(-c2ccccn2)n1	25 µM	4	13
CS(=O)(=O)c1cccc(CNC(=O)c2cncc(N3CCN(c4ccc(F)cc4)CC3)c2)c1	0.4 µM	> 50	0.25
COc1ccc(-c2cnc(NC(=O)c3ccc(F)cc3)n2C)cc1	5 µM	> 50	2
Cc1ccc(NC(=O)c2ccnc(N3CCCC3)c2)cc1-c1ccsc1C(N)=O	13 µM	> 50	7.9
COCCn1c(-c2ccc3c(c2)OCO3)cnc1NCc1ccccc1OC	20 µM	40	7.9
CC(C)C[C@H](NC(=O)c1ccc(-c2ccccc2)o1)C(=O)NC1(C#N)CC1	> 50 µM (inactive)	> 50	25
Cc1ccc(C)c(OC2CCN(C(=O)C(C)n3ccnc3)CC2)c1 (stereo unspecified)	0.4 µM	> 50	0.32
O=C(NCC1CCCCC1)c1cc(=O)c2ccccc2o1	0.63 µM	32	0.5
Nc1nc(-c2ccccn2)nc(-n2nc(-c3ccccc3)cc2N)n1	2.5 µM	2	0.32
COc1cccc(C(=O)[C@H]2C[C@@H]2CN(Cc2ccccn2)Cc2ccccn2)c1	1.3 µM	20	0.79
Cc1cnc(Nc2cc(Cc3ccccc3)nc(NC3CCC(O)CC3)n2)s1 (stereo unspecified)	0.13 µM	0.032	0.05
